# Patent US10172905B1, “Treatment of protein degradation disorders” (President and Fellows of Harvard College, priority 2005, dated 2019)
# “Also recorded” adds a separate entry of the source.
# Key:
# MM.1S and RPMI8226 cells = test: [3H]-thymidine uptake of MM cells adherent to BMSCs; format: cell-based, human
# Experimental: […] DNA synthesis was measured as described above.
# After treatment, DNA synthesis was measured by [^3H]-thymidine (Perkin Elmer, Boston Mass.) uptake, as previously described (44). All experiments were performed in quadruplicate.
# [1] = test system: rat astrocytes and striatal neurons; test: Russell body formation in rat astrocytes and striatal neurons; format: cell-based; settings: previous experiments, comparable concentrations
# breast cancer cells = test: Synergy of bortezomib and tubacin in breast cancer; format: cell-based
# HDAC6 = target: T1, HDAC6 (Homo sapiens, UniProt Q9UBN7); test: Western blotting with anti-acetylated lysine / HDAC6 Abs; format: cell-based; design: MM.1S, U266, INA-6, RPMI8226, and RPMI-LR5 MM cell lines constitutively express HDAC6; endogenous in cells; host or cells: MM.1S, RPMI8226 and other MM cell lines; MM patient BMPCs/PBMCs
# T1 sequence (Q9UBN7 1-1215): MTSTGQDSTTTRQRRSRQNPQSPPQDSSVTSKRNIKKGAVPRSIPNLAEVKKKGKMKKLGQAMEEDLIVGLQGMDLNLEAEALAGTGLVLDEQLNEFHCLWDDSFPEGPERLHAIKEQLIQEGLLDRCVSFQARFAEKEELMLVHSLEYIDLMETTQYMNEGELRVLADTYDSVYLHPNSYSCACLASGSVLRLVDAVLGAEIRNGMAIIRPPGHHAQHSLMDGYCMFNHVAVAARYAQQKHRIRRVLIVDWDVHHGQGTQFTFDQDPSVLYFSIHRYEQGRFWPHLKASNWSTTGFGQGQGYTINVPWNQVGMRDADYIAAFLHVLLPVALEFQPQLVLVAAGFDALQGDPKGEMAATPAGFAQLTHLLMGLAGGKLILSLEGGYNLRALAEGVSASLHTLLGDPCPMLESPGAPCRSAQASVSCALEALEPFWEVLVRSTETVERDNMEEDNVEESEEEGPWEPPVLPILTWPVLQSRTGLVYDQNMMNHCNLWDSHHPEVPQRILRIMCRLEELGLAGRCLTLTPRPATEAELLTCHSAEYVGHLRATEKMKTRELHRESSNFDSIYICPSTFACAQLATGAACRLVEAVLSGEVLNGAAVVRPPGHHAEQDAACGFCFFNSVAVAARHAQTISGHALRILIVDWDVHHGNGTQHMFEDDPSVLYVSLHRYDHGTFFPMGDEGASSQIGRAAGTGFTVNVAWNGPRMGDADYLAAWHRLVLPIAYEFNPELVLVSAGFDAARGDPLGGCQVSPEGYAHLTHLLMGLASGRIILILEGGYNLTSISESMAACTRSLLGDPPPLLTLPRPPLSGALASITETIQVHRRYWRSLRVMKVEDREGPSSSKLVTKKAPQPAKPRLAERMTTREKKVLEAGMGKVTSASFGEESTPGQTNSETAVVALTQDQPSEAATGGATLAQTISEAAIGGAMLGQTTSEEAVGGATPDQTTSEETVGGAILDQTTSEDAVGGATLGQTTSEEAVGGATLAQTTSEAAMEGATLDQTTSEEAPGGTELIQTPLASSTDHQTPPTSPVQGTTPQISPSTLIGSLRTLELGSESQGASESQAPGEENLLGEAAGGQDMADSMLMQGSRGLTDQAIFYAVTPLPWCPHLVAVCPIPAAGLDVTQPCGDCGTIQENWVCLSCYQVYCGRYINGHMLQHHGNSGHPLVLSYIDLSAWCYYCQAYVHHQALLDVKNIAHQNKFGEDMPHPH
# Experimental: MM cells were cultured with Velcade and/or Tubacin; harvested; washed; and lysed using lysis buffer: 50 mM Tris-HCl (pH 7.4), 150 mM NaCl, 1% NP-40, 5 mM EDTA, 5 mM NaF, 2 mM Na3VO4, 1 mM PMSF, 5 μg/ml leupeptine, and 5 μg/ml aprotinin. Cell lysates were subjected to SDS-PAGE, transferred to PVDF membrane (Bio-Rad Laboratories, Hercules, Calif.), and immunoblotted with Abs against specific proteins.
# Cells cultured with tubacin and/or bortezomib were harvested; washed, and lysed using lysis buffer: 50 mM Tris-HCl (pH 7.4), 150 mM NaCl, 1% NP-40, 5 mM EDTA, 5 mM NaF, 1 mM Na3VO4, 1 mM PMSF, 5 μg/ml leupeptine, and 5 μg/ml aprotinin. Whole cell lysates were subjected to SDS-PAGE, transferred to nitrocellulose membrane (Bio-Rad Laboratories, Hercules, Calif.), and immunoblotted with specific Abs (31). Western blotting was done using anti-HDAC6, acetylated lysine, acetylated histone H3, acetylated histone H4, ubiquitin (Ub), phospho-SAPK (JNK), caspase-8 caspase-9, caspase-3, and PARP Abs (Cell Signaling, Beverly, Mass.); with anti-α-tubulin Ab (Santa Cruz Biotechnology, Santa Cruz, Calif.); as well as with anti-dynein Ab (Sigma, Saint Louis, Mo.). For immunoprecipitation, whole cell lysates were incubated with anti-Ub or dynein Abs overnight at 4° C., and then incubated with protein A/G PLUS-Agarose (Santa Cruz Biotechnology) for 2 h at 4° C., as in our prior study (31). Immunoprecipitates were then subjected to Western blotting for detection of HDAC6 and dynein.
structure (smiles),measurement,setting,value
O=C(CCCCCCC(=O)Nc1ccc([C@H]2O[C@@H](CSc3nc(-c4ccccc4)c(-c4ccccc4)o3)C[C@@H](c3ccc(CO)cc3)O2)cc1)NO [tubacin],"BMSC-induced [3H]-thymidine uptake / MM cell growth with BMSCs, single agent","MM.1S and RPMI8226 cells; MM cells adherent to BMSCs, 24 h",inhibits BMSC-induced [^3H]-thymidine uptake in a dose-dependent fashion; also recorded: significantly inhibits MM.1S cell growth even in the presence of BMSCs; also recorded: inhibits paracrine MM cell growth
same,effect of tubacin on bortezomib-induced inhibition of [3H]-thymidine uptake,"MM.1S and RPMI8226 cells; adherent MM.1S and RPMI8226 cells, tubacin with bortezomib",significantly enhances bortezomib-induced inhibition of [^3H]-thymidine uptake; also recorded: further augmented cytotoxicity of Velcade
same,Russell body formation,[1],features suggestive of Russell body formation
same,synergy with bortezomib in breast cancer,breast cancer cells,synergy
same,acetylation of α-tubulin,"HDAC6; MM cell lines (MM.1S, RPMI8226), tubacin up to 5 μM, 24 h",significantly induces aceylation of α-tubulin in a dose-dependent fashion; also recorded: causes tubulin hyperacetylation; also recorded: specifically induces acetylation of t-tubulin in a dose-dependent fashion; also recorded: specifically induces acetylation of α-tubulin
same,acetylation of tubulin in BMPCs,"HDAC6; tubacin 5 μM, 12 h, BMPCs of an MM patient",markedly enhanced
same,acetylation of tubulin in PBMCs,"HDAC6; tubacin 5 μM, 12 h, PBMCs of the same MM patient",but not in PBMCs
same,time of peak acetylation of α-tubulin,"HDAC6; tubacin 5 μM, RPMI8226 cells",12 h
same,expression of HDAC6,HDAC6; tubacin treatment (data not shown),not altered
